Read-outs that look alike come from different tables or passages of the source.
Assays:
[1] = system: EKP-induced epileptiform discharges in zebrafish larvae; experiment: Zebrafish EKP seizure model, electrophysiology (non-invasive LFP recordings, PSD analysis); assay type: in vivo, zebrafish (Danio rerio); details: 7 dpf larvae; for effect on EKP-induced elevated PSD (in words): 22 h; for efficacy against EKP-induced epileptiform discharges 2 μM / efficacy against EKP-induced epileptiform discharges 10 μM: 22 h incubation, mean, normalized PSD 20-90 Hz
Description: Non-invasive LFP recordings were measured from the midbrain (optic tectum) of 7 dpf zebrafish larvae pre-incubated with VHC only, EKP only, or compound and EKP. […] These steps occurred at 28° C., while further manipulation and electrophysiological recordings occurred at room temperature (±21° C.) and were performed as described before (16, 27). Each recording lasted 600 seconds.
A power spectral density (PSD) analysis of the recordings was performed using MatLab R2019 software (MATrix LABoratory, USA) as described in (26). The PSD estimate of each LFP recording was summed over each 10 Hz frequency band, ranging from 0 to 160 Hz. Next, the PSD estimates were normalized against the VHC control. Data are expressed as mean±SEM PSD per larva and per condition over the 20-90 Hz region. Outliers were identified via the ROUT test (Q=1%).
PSD analysis assumes that the epileptiform activity manifests as a high-power oscillation at certain frequencies (26). Thus, if epileptic activity occurs often during the recording an elevated PSD estimate should be found at the corresponding frequency band(s) (26).

Caco-2 permeability = assay type: in vitro ADME; details: human; for recovery at 10 μM: Caco-2, Caco-2, 10 μM; for Papp A→B at 10 μM / Papp B→A at 10 μM: Caco-2, pH 6.5 and 7.4, 10 μM; for Papp A→B at 10 μM: apical to basolateral; for Papp B→A at 10 μM: basolateral to apical
Text: In vitro ADME profiling of compounds was done by Eurofins Panlabs Inc (St Charles, MO, USA) using their ADME-Tox service (Cat Ref P375, Tier 1 ADME Panel). […] (28). The atom-based log P calculation method, called OsirisP, uses as an increment system and adds contributions of every atom based on its atom type. The prediction engine distinguishes a total of 368 atom types and was optimized using a training set of more than 5000 molecules with experimentally determined log P values. The free prediction engine has proven to outperform many alternative calculation methods (29).
Caco-2 cells were derived from a human colorectal adenocarcinoma. For permeability assays, cells were seeded at 1×10^5 cells/cm2 in 96 Multiscreen™ plates (Millipore) and used at days 21-25 post-seeding. Cells were used for 15 consecutive passages in culture. HBSS with 10 mM MES at pH 6.5 (apical side) or HBSS with HEPES at pH 7.4 (basolateral side) were used as the transport buffers. Test compounds were added at 10 μM concentration (final solvent concentration of 1% DMSO) to the apical side to determine apical to basolateral (A-B) transport and to the basal side to determine basolateral to apical (B-A) transport. For inhibition studies, 100 μM verapamil was included on both the A and B sides. Aliquots were taken from the donor side (A-B transport) at time zero and the end point, and from the receiver side (B-A transport) at the end point. Propranolol, labetalol, ranitidine, and colchicine (P-glycoprotein substrate) were included in each assay. Samples were analysed by HPLC-MS/MS for quantification. Papp (cm/sec) was calculated from the following equation: […]
Where VR is the volume of the receiver, C is the concentration of the test compound (either at the donor or receiver side and at mid-point or end point of the incubation), Δt is the incubation time (seconds) and A is the surface area of the cell monolayer (0.11 cm^2).

PDE3A = target: T1, PDE3A (Homo sapiens, UniProt Q14432); experiment: Enzymatic PDE3A Inhibitor; assay type: biochemical; details: for IC50: read-out: RC50, result type IC50; for Emax: read-out: Max response
T1 construct: purchased Signal Chem
Description: Enzyme preparations were sourced from various vendors-AChE (R&D Systems), COX1 and COX2 (BPS Bioscience), MAOA (Sigma), PDE3A and PDE4D2 (Signal Chem). AChE: enzyme and test compound were pre-incubated for 15 min at RT before substrate addition. Acetylthiocholine and DTNB were added and incubated at RT for 30 min. Signal was detected by measuring absorbance at 405 nm. COX1 and COX2: enzyme stocks were diluted in assay buffer (40 mM Tris-HCl, 1×PBS, 0.5 mM Phenol, 0.01% Tween 20 and 10 nM Hematin) and allowed to equilibrate with compounds at RT for 30 min (binding incubation). Arachidonic acid (1.7 μM) and Ampliflu Red (2.5 μM) were prepared and dispended into a reaction plate. Plates were read immediately on a fluorimeter with the emission detection at 590 nm and excitation wavelength 544 nm. MAOA: enzyme and test compound were pre-incubated for 15 min at 37° C. before substrate addition. The reaction was initiated by addition of kynuramine and incubated at 37° C. for 30 min. The reaction was terminated by addition of NaOH. The amount of 4-hydroquinoline formed was determined through spectrofluorometric readout with the emission detection at 380 nm and excitation wavelength 310 nm. PDE3A and PDE4D2: enzyme and test compound were pre-incubated for 15 min at RT before substrate addition. cAMP substrate (at a concentration equal to EC80) was added and incubated at RT for 30 min. Enzyme reaction was terminated by addition of 9 mM IBMX. Signal was detected using the HitHunter® cAMP detection kit. Microplates were transferred to a PerkinElmer Envision™ instrument and read out as described for each assay. […] For enzyme activity assays, percentage inhibition was calculated using the following equation: […]

HTR1A = target: T2, HTR1A (Homo sapiens, UniProt P08908); experiment: cAMP HTR1A Antagonist; details: for Emax: read-out: Max response
T2 sequence (P08908 1-422): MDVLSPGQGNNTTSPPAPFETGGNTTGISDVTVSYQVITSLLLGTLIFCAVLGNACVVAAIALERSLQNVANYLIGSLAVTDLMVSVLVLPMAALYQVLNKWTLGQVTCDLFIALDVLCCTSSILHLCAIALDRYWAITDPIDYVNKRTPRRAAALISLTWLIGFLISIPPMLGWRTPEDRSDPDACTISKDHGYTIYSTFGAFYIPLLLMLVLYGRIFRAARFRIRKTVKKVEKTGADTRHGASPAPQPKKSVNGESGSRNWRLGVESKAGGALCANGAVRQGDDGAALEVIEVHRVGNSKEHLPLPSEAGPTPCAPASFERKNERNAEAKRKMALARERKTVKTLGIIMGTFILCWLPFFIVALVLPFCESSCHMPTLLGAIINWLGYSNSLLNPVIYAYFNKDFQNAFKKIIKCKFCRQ
Description: In vitro pharmacological profiling of compounds was done against 78 functional assays for 47 common off-targets (30) by Eurofins DiscoverX Corporation (Fremont, CA, USA) using their SAFETYscan E/IC50 ELECT service (Cat Ref 87-1003DR, Safety47 Panel Dose Response). […] Compounds were tested in a range of 10 concentrations, following a 3-fold serial dilution, starting from 10 μM.
cAMP Hunter cell lines were expanded from freezer stocks. Prior to testing, cells were seeded in a total volume of 20 μL into white walled 384-well microplates and incubated at 37° C. cAMP modulation was determined using the DiscoverX HitHunter cAMP XS+ assay. For Gs agonist determination, cells were incubated with sample to induce response. For Gi agonist determination, cells were incubated with sample in the presence of EC80 forskolin to induce response. For both conditions, media was aspirated from cells and replaced with 15 μL 2:1 HBSS/10 mM HEPES:cAMP XS+ Ab reagent. Intermediate dilution of sample stocks was performed to generate 4× sample in assay buffer (containing 4×EC80 forskolin in the case of antagonist determination). 5 μL of 4× sample was added to cells and incubated at 37° C. or room temperature (RT) for 30 or 60 min. Final assay vehicle concentration was 1%. For antagonist determination, cells were pre-incubated with sample followed by agonist challenge at the EC80 concentration. Media was aspirated from cells and replaced with 10 μL 1:1 HBSS/HEPES:cAMP XS+ Ab reagent. 5 μL of 4× compound was added to the cells and incubated at 37° C. or RT for 30 min. 5 μL of 4×EC80 agonist was added to the cells and incubated at 37° C. or RT for 30 or 60 min. For Gi coupled GPCRs, EC80 forskolin was included. […] Microplates were read following signal generation with a PerkinElmer Envision™ instrument for chemiluminescent signal detection. Compound activity was analyzed using CBIS data analysis suite (ChemInnovation, CA).

ADRA1A = target: T3, ADRA1A (Homo sapiens, UniProt P35348); experiment: Calcium Flux ADRA1A Antagonist; details: for Emax: read-out: Max response
T3 sequence (P35348 1-466): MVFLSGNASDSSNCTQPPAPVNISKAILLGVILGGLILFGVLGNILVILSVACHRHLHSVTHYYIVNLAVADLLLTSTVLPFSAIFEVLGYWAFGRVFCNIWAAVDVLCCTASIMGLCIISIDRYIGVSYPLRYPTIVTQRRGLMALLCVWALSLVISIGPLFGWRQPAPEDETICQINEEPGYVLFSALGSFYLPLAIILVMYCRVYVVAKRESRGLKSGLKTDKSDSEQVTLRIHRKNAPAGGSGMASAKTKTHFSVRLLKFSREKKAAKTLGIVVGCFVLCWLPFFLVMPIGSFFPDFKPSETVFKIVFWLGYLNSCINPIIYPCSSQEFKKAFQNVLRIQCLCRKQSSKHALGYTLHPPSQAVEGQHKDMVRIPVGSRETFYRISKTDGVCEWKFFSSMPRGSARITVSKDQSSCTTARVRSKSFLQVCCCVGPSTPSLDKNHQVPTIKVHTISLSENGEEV
Description: In vitro pharmacological profiling of compounds was done against 78 functional assays for 47 common off-targets (30) by Eurofins DiscoverX Corporation (Fremont, CA, USA) using their SAFETYscan E/IC50 ELECT service (Cat Ref 87-1003DR, Safety47 Panel Dose Response). […] Compounds were tested in a range of 10 concentrations, following a 3-fold serial dilution, starting from 10 μM. The assays were performed utilizing the PathHunter enzyme fragment complementation (EFC) technology, FLIPR®-based cellular screening assays, and KINOMEscan kinase binding assays.
Prior to testing, cells (10,000 cells/well) were expanded from freezer stocks and seeded into a total volume of 50 μL into black walled, clear-bottom, Poly-D-lysine coated 384-well microplates and incubated at 37° C. […] Assays were performed in 1× dye loading buffer consisting of 1× Dye (DiscoverX, Calcium No Wash^PLUS kit, Catalog No. 90-0091), 1× Additive A and 2.5 mM Probenecid in HBSS/20 mM HEPES. Probenecid was prepared fresh. Prior to testing, media was aspirated from cells and replaced with 25 μL dye loading buffer. Cells were incubated for 45 min at 37° C. and then 20 min at RT. For agonist determination, 25 μL of 2× compound in HBSS/20 mM HEPES was added using a FLIPR Tetra (MDS). For antagonist determination, cells were pre-incubated with sample followed by agonist challenge at the EC80 concentration. 25 μL of 2× sample was added and cells were incubated for 30 min at RT in the dark to equilibrate plate temperature. After incubation, antagonist determination was initiated by addition of 25 μL of 1× compound with 3×EC80 agonist using FLIPR. For both agonist and antagonist formats, activity was measure on a FLIPR Tetra (MDS). Calcium mobilization was monitored for 2 min with a 5 sec baseline read.
FLIPR read—Area under the curve, was calculated for the entire 2 min read. Compound activity was analysed using CBIS data analysis suite (ChemInnovation, CA).

[2] = read-out: percentual recovery, apical to basolateral direction
[3] = read-out: percentual recovery, basolateral to apical direction

T1 sequence (Q14432 whole entry): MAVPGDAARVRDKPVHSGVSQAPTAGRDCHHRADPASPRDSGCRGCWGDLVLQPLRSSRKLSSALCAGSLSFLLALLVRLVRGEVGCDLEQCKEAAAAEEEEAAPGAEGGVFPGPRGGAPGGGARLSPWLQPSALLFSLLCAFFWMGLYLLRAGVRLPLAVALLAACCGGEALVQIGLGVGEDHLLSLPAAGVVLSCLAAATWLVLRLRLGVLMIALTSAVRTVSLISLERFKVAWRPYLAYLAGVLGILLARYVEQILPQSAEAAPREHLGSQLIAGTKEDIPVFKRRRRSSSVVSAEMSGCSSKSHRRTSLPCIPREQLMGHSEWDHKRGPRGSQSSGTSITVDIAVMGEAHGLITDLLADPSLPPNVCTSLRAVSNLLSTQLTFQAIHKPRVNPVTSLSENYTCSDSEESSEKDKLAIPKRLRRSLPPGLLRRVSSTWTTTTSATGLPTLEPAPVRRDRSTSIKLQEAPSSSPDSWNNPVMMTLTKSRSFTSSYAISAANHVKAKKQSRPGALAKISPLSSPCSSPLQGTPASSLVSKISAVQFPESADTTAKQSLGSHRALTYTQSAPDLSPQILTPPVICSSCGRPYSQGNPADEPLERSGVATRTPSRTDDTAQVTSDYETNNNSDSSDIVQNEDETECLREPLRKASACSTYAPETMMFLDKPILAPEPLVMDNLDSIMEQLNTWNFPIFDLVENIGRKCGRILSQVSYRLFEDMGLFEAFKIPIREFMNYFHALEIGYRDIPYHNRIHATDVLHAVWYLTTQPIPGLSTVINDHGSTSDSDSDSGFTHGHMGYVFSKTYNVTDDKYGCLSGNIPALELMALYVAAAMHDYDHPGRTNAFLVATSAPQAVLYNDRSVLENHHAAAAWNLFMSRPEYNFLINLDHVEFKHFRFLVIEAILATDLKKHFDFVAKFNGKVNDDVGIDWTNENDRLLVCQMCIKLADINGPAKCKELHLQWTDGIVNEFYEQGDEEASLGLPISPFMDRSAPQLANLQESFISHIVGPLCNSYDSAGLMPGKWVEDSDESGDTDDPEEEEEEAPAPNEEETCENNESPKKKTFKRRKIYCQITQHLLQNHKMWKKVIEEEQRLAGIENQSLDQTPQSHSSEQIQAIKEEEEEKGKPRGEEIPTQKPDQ

Structure (SMILES): CC(C)(C)c1ccc(C#CC(O)c2ccccc2)cc1 (racemic) [Compound 3.3, rac-3-(4-(tert-butyl)phenyl)-1-phenylprop-2-yn-1-ol]
- effect on EKP-induced elevated PSD (in words) ([1]; 2 μM): remained effective
- efficacy against EKP-induced epileptiform discharges 2 μM ([1]; 2 μM): 54%
- effect on EKP-induced elevated PSD (in words) ([1]; 10 μM): significant decrease
- efficacy against EKP-induced epileptiform discharges 10 μM ([1]; 10 μM): 82%
- recovery at 10 μM (Caco-2 permeability; [2]): 6%
- recovery at 10 μM (Caco-2 permeability; [3]): 15%
- Papp A→B at 10 μM (Caco-2 permeability): 0.4 ×10⁻⁶ cm/s
- Papp B→A at 10 μM (Caco-2 permeability): 0.1 ×10⁻⁶ cm/s
- IC50 (PDE3A; Enzymatic PDE3A Inhibitor): > 10 µM
- Emax (PDE3A): 0.6%
- IC50 (HTR1A): > 10 µM
- Emax (HTR1A): 47.2%
- IC50 (ADRA1A): > 10 µM
- Emax (ADRA1A): 0%

Structure (SMILES): Clc1cccc(C#Cc2n[nH]c3ncccc23)c1 [Compound 10.1, 3-((3-chlorophenyl)ethynyl)-1H-pyrazolo[3,4-b]pyridine]
- effect on EKP-induced elevated PSD (in words) ([1]; 2 μM): did not
- efficacy against EKP-induced epileptiform discharges 2 μM ([1]; 2 μM): −30%
- effect on EKP-induced elevated PSD (in words) ([1]; 10 μM): significant decrease
- efficacy against EKP-induced epileptiform discharges 10 μM ([1]; 10 μM): 77%
- recovery at 10 μM (Caco-2 permeability; [2]): 13%
- recovery at 10 μM (Caco-2 permeability; [3]): 44%
- Papp A→B at 10 μM (Caco-2 permeability): 3.3 ×10⁻⁶ cm/s
- Papp B→A at 10 μM (Caco-2 permeability): 0.7 ×10⁻⁶ cm/s
- Emax (PDE3A; Enzymatic PDE3A Inhibitor): 0.1%
- IC50 (PDE3A; Enzymatic PDE3A Inhibitor): > 10 µM
- IC50 (HTR1A): > 10 µM
- Emax (HTR1A): 0%
- IC50 (ADRA1A): > 10 µM
- Emax (ADRA1A): 0%

— patent US20250186408A1, “TREATMENT OF PHARMACORESISTANT EPILEPSY” (Katholieke Universiteit Leuven, priority 2021, published 2025)
